pKi: −log10 of the molar value. Counter-ions that a name gives are not always drawn.
target: D2 -receptor (Rattus norvegicus, UniProt P61169); assay: Receptor binding test (3H-ADTN, rat striatal membranes); design: species or system rats (Sprague Dawley); details: not given
Sequence (P61169 whole entry): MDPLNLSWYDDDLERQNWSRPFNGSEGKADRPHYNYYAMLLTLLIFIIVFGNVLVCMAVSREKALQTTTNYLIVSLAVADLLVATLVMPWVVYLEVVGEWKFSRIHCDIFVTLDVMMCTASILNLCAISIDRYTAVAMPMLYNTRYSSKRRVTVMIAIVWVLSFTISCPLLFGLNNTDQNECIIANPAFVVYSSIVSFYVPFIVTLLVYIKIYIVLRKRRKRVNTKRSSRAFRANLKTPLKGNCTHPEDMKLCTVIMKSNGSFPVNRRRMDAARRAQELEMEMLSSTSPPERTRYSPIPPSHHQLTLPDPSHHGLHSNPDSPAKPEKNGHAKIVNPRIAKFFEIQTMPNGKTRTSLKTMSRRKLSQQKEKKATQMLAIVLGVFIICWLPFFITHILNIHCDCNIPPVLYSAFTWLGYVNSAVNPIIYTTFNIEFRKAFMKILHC

Row | Compound | pKi
1 | Cc1nc(Nc2ccccc2)sc1CCCN1CC=C(c2ccccc2)CC1 [Example 3, 4-methyl-2-phenylamino-5-[3-(4-phenyl-1,2,3,6-tetrahydropyridyl)-propyl]-thiazole dihydrochloride] | 8.40
2 | COc1ccc(-c2nc(N)sc2CCN2CC=C(c3ccccc3)CC2)cc1 [Example 4, 2-Amino-4-(4-methoxyphenyl)-5-[2-(4-phenyl-1,2,3,6-tetrahydropyridyl)-ethyl]-thiazole] | 7.80
3 | Nc1nc(-c2cccs2)c(CCN2CC=C(c3ccccc3)CC2)s1 [Example 5, 2-Amino-5-[2-(4-phenyl-1,2,3,6-tetrahydropyridyl)-ethyl]-4-thien-2-ylthiazole dihydrochloride] | 8.00
4 | Nc1nc(-c2ccccc2)c(CCN2CC=C(c3ccccc3)CC2)s1 [Example 8, 2-Amino-4-phenyl-5-[2-(4-phenyl-1,2,3,6-tetrahydropyridyl)-ethyl]-thiazole tartrate] | 8.00
5 | Cc1nc(N)sc1CCCN1CC=C(c2ccccc2)CC1 [Example 11, 2-Amino-4-methyl-5-[3-(4-phenyl-1,2,3,6-tetrahydropyridyl)-propyl]-thiazoletartrate] | 8.00

same assay, conditions: displacement of 1 nM 3H-ADTN, rat striatum membranes, 0.1 μM SCH 23390, 40 min at 25° C.; read-out: Ki

Row | Compound | pKi
6 | 2-Methylamino-4-methyl-5-[3-(4-phenylpiperazin-1-yl)-propyl]-thiazole dihydrochloride [Example 1] | 8.22
7 | Cc1nc(N)sc1CCCN(C)CCc1ccccc1 [Example 2, 2-Amino-4-methyl-5-[3-(N-methyl-N-phenethylamino)-propyl]-thiazole fumarate] | 7.70
8 | Nc1nc(-c2ccccc2)c(CCCN2CCN(c3ccccc3)CC2)s1 [Example 9, 2-Amino-4-phenyl-5-[3-(4-phenylpiperazin-1-yl)-propyl]-thiazole trihydrochloride] | 7.85
9 | CCCN(CCCc1sc(N)nc1C)CCc1ccccc1 [Example 10, 2-Amino-4-methyl-5-[3-(N-phenethyl-N-propylamino)-propyl]-thiazole fumarate] | 8.00
10 | Nc1nc(-c2ccccc2)c(CCCN2CCN(c3ncccn3)CC2)s1 [Example 13, 2-Amino-4-phenyl-5-[3-(4-pyrimid-2-ylpiperazin-1-yl)-propyl]-thiazole tartrate] | 8.00

More lines, now with the values ahead:

Row | pKi | Compound
11 | 7.82 | Nc1nc(-c2ccccc2)c(CCCN2CCN(c3ccccn3)CC2)s1 [Example 14, 2-Amino-4-phenyl-5-[3-(4-pyrid-2-ylpiperazin-1-yl)-propyl]tartrate]
12 | 7.60 | Nc1nc(-c2ccccc2)c(CCCN2CCN(c3ccccc3Cl)CC2)s1 [Example 18, 2-Amino-5-[3-(4-(2-chlorophenyl)-piperazin-1-yl)-propyl]-4-phenylthiazole tartrate]
13 | 7.80 | Nc1nc(-c2ccccc2)c(CCN2CCN(c3ccccc3[N+](=O)[O-])CC2)s1 [Example 22, 2-Amino-5-[2-(4-(2-nitrophenyl)-piperazin-1-yl)-ethyl]-4-phenylthiazole tartrate]
14 | 7.70 | CCCN(CCCc1sc(N)nc1-c1ccccc1)CCc1ccccc1 [Example 23, 2-Amino-4-phenyl-5-[3-(N-propyl-N-phenethylamino)-propyl]-thiazole dihydrochloride]
15 | 8.40 | CCCN(CCCCc1sc(N)nc1C)CCc1ccccc1 [Example 25, 2-Amino-4-methyl-5-[4-(N-propyl-N-phenethylamino)-butyl]-thiazole dihydrochloride]
